The source of these data is patent US20260022142A1, “MACROCYCLIC IMMUNOMODULATORS” (Bristol-Myers Squibb Company, priority 2022, published 2026).

Molecules are shown by their SMILES. Bridge positions count the residues as written; N and C are the ends. Square brackets hold non-standard residues; d marks the D form. Peptide text beside a SMILES is read from it. * marks the point of attachment. Phe(4-CONH2) = NC(=O)c1ccc(C[C@H](N)C(=O)O)cc1; Phe(3,4-F2) = N[C@@H](Cc1ccc(F)c(F)c1)C(=O)O; Bip = N[C@@H](Cc1ccc(-c2ccccc2)cc1)C(=O)O; NH(CH2)14COOH = O=C(O)CCCCCCCCCCCCCCN*; Phe(3-Me) = Cc1cccc(C[C@H](N)C(=O)O)c1; Phe(4-F) = N[C@@H](Cc1ccc(F)cc1)C(=O)O; NH(CH2)12COOH = O=C(O)CCCCCCCCCCCCN*; Val(3-OH) = CC(C)(O)[C@H](N)C(=O)O; 4Pal = N[C@@H](Cc1ccncc1)C(=O)O; Cha = N[C@@H](CC1CCCCC1)C(=O)O; Carboxymethyl = O=C(O)C*; Orn = NCCC[C@H](N)C(=O)O; Aun = NCCCCCCCCCCC(=O)O; Dab = NCC[C@H](N)C(=O)O; Nva = CCC[C@H](N)C(=O)O; Abu = CC[C@H](N)C(=O)O; Dap = NC[C@H](N)C(=O)O

This assay deals with T1, PD-1/PD-L1 interaction (PE-labeled human PD-L1-Ig binding to Jurkat cell line over-expressing human PD-1) (Homo sapiens, UniProt Q15116).
T1 construct: expressed in transfected cells; host or cells: Jurkat
T1 sequence (Q15116 25-288): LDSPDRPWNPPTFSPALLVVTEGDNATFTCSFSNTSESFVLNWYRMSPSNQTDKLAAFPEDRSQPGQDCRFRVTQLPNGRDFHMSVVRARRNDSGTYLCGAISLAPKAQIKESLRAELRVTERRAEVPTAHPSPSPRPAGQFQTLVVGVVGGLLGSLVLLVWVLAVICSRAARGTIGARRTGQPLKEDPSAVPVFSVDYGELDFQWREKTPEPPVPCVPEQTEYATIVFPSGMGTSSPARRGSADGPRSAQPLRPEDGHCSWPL
Nature of the assay: Jurkat-PD-1 Cell Binding High-Content Screening Assay (CBA). It is filed as cell-based. The following applies: Jurkat cell line over-expressing human PD-1; PE-labeled PD-L1-Ig 20 nM final; read-out: Jurkat hPD1-PDL1 IC50. The gist of the method: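 Binding of fluorescent PD-L1-Ig (phycoerythrin on Ig tag, 20 nM final, 1 h) measured by high-content imaging of fixed, Hoechst-counterstained Jurkat-hPD-1 cells. Compound added 2 h at 37° C beforehand, in DMEM with 10% fetal calf serum.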
In general, IC50 refers to the concentration at which inhibition is half-maximal. Turning to `Cc1cccc(C[C@@H]2NC(=O)[C@H](CC(=O)O)NC(=O)[C@H](Cc3ccc(OCC(=O)O)cc3)NC(=O)[C@H](CN)NC(=O)CSC[C@@H](C(=O)N[C@@H](CCN)C(=O)NCCCCCCCCCCC(=O)O)NC(=O)[C@H](CO)NC(=O)[C@H](C(C)(C)O)NC(=O)[C@H](CC3CCCCC3)NC(=O)[C@H](CCN)NC(=O)[C@@H](CC(C)C)NC(=O)[C@H](CCCN)NC(=O)[C@H](Cc3ccc(OCC(=O)O)cc3)NC(=O)[C@H](Cc3ccc(-c4ccccc4)cc3)NC(=O)[C@H](Cc3ccc(OCC(=O)O)cc3)NC2=O)c1` [Compound 2213] ({CH2CO}-[Dap]Y(Carboxymethyl)D[Phe(3-Me)]Y(Carboxymethyl)[Bip]Y(Carboxymethyl)[Orn][dL][Dab][Cha][Val(3-OH)]SC[Dab][Aun]-OH; thioether N-14), the IC50 stood at 11 nM.

As for `CC[C@@H]1NC(=O)CSC[C@@H](C(=O)N[C@@H](CCN)C(=O)NCCCCCCCCCCC(=O)O)NC(=O)[C@H](CO)NC(=O)[C@H](C(C)(C)O)NC(=O)[C@H](CC2CCCCC2)NC(=O)[C@H](CCN)NC(=O)[C@@H](CC(C)C)NC(=O)[C@H](CCCN)NC(=O)[C@H](Cc2ccc(OCC(=O)O)cc2)NC(=O)[C@H](Cc2ccc(-c3ccccc3)cc2)NC(=O)[C@H](Cc2ccc(OCC(=O)O)cc2)NC(=O)[C@H](Cc2cccc(C)c2)NC(=O)[C@H](CC(=O)O)NC(=O)[C@H](Cc2ccc(OCC(=O)O)cc2)NC1=O` [Compound 2214] ({CH2CO}-[Abu]Y(Carboxymethyl)D[Phe(3-Me)]Y(Carboxymethyl)[Bip]Y(Carboxymethyl)[Orn][dL][Dab][Cha][Val(3-OH)]SC[Dab][Aun]-OH; thioether N-14), the IC50 came to 8 nM. In the case of `Cc1cccc(C[C@@H]2NC(=O)[C@H](CC(=O)O)NC(=O)[C@H](Cc3ccc(OCC(=O)O)cc3)NC(=O)[C@H](Cc3ccncc3)NC(=O)CSC[C@@H](C(=O)N[C@@H](CCN)C(=O)NCCCCCCCCCCC(=O)O)NC(=O)[C@H](CO)NC(=O)[C@H](C(C)(C)O)NC(=O)[C@H](CC3CCCCC3)NC(=O)[C@H](CCN)NC(=O)[C@@H](CC(C)C)NC(=O)[C@H](CCCN)NC(=O)[C@H](Cc3ccc(OCC(=O)O)cc3)NC(=O)[C@H](Cc3ccc(-c4ccccc4)cc3)NC(=O)[C@H](Cc3ccc(OCC(=O)O)cc3)NC2=O)c1` [Compound 2215] ({CH2CO}-[4Pal]Y(Carboxymethyl)D[Phe(3-Me)]Y(Carboxymethyl)[Bip]Y(Carboxymethyl)[Orn][dL][Dab][Cha][Val(3-OH)]SC[Dab][Aun]-OH; thioether N-14) it was 12.8 nM; in that of `Cc1cccc(C[C@@H]2NC(=O)[C@H](CC(=O)O)NC(=O)[C@H](Cc3ccc(OCC(=O)O)cc3)NC(=O)[C@H](Cc3ccc(F)cc3)NC(=O)CSC[C@@H](C(=O)N[C@@H](CCN)C(=O)NCCCCCCCCCCC(=O)O)NC(=O)[C@H](CO)NC(=O)[C@H](C(C)(C)O)NC(=O)[C@H](CC3CCCCC3)NC(=O)[C@H](CCN)NC(=O)[C@@H](CC(C)C)NC(=O)[C@H](CCCN)NC(=O)[C@H](Cc3ccc(OCC(=O)O)cc3)NC(=O)[C@H](Cc3ccc(-c4ccccc4)cc3)NC(=O)[C@H](Cc3ccc(OCC(=O)O)cc3)NC2=O)c1` [Compound 2216] ({CH2CO}-[Phe(4-F)]Y(Carboxymethyl)D[Phe(3-Me)]Y(Carboxymethyl)[Bip]Y(Carboxymethyl)[Orn][dL][Dab][Cha][Val(3-OH)]SC[Dab][Aun]-OH; thioether N-14), 36.7 nM. Consider `Cc1cccc(C[C@@H]2NC(=O)[C@H](CC(=O)O)NC(=O)[C@H](Cc3ccc(OCC(=O)O)cc3)NC(=O)[C@H](Cc3ccc(F)c(F)c3)NC(=O)CSC[C@@H](C(=O)N[C@@H](CCN)C(=O)NCCCCCCCCCCC(=O)O)NC(=O)[C@H](CO)NC(=O)[C@H](C(C)(C)O)NC(=O)[C@H](CC3CCCCC3)NC(=O)[C@H](CCN)NC(=O)[C@@H](CC(C)C)NC(=O)[C@H](CCCN)NC(=O)[C@H](Cc3ccc(OCC(=O)O)cc3)NC(=O)[C@H](Cc3ccc(-c4ccccc4)cc3)NC(=O)[C@H](Cc3ccc(OCC(=O)O)cc3)NC2=O)c1` [Compound 2217] ({CH2CO}-[Phe(3,4-F2)]Y(Carboxymethyl)D[Phe(3-Me)]Y(Carboxymethyl)[Bip]Y(Carboxymethyl)[Orn][dL][Dab][Cha][Val(3-OH)]SC[Dab][Aun]-OH; thioether N-14), for which the IC50 is 27.9 nM. `Cc1cccc(C[C@@H]2NC(=O)[C@H](CC(=O)O)NC(=O)[C@H](Cc3ccc(OCC(=O)O)cc3)NC(=O)[C@H](Cc3ccc(C(N)=O)cc3)NC(=O)CSC[C@@H](C(=O)N[C@@H](CCN)C(=O)NCCCCCCCCCCC(=O)O)NC(=O)[C@H](CO)NC(=O)[C@H](C(C)(C)O)NC(=O)[C@H](CC3CCCCC3)NC(=O)[C@H](CCN)NC(=O)[C@@H](CC(C)C)NC(=O)[C@H](CCCN)NC(=O)[C@H](Cc3ccc(OCC(=O)O)cc3)NC(=O)[C@H](Cc3ccc(-c4ccccc4)cc3)NC(=O)[C@H](Cc3ccc(OCC(=O)O)cc3)NC2=O)c1` [Compound 2218] ({CH2CO}-[Phe(4-CONH2)]Y(Carboxymethyl)D[Phe(3-Me)]Y(Carboxymethyl)[Bip]Y(Carboxymethyl)[Orn][dL][Dab][Cha][Val(3-OH)]SC[Dab][Aun]-OH; thioether N-14): the IC50 is 7.1 nM.

As to `Cc1cccc(C[C@@H]2NC(=O)[C@H](CC(=O)O)NC(=O)[C@H](Cc3ccc(OCC(=O)O)cc3)NC(=O)[C@H](Cc3cnc[nH]3)NC(=O)CSC[C@@H](C(=O)N[C@@H](CCN)C(=O)NCCCCCCCCCCC(=O)O)NC(=O)[C@H](CO)NC(=O)[C@H](C(C)(C)O)NC(=O)[C@H](CC3CCCCC3)NC(=O)[C@H](CCN)NC(=O)[C@@H](CC(C)C)NC(=O)[C@H](CCCN)NC(=O)[C@H](Cc3ccc(OCC(=O)O)cc3)NC(=O)[C@H](Cc3ccc(-c4ccccc4)cc3)NC(=O)[C@H](Cc3ccc(OCC(=O)O)cc3)NC2=O)c1` [Compound 2219] ({CH2CO}-HY(Carboxymethyl)D[Phe(3-Me)]Y(Carboxymethyl)[Bip]Y(Carboxymethyl)[Orn][dL][Dab][Cha][Val(3-OH)]SC[Dab][Aun]-OH; thioether N-14), the IC50 amounted to 4.7 nM. As to `Cc1cccc(C[C@@H]2NC(=O)[C@H](CC(=O)O)NC(=O)[C@H](Cc3ccc(OCC(=O)O)cc3)NC(=O)[C@H](CC(N)=O)NC(=O)CSC[C@@H](C(=O)N[C@@H](CCN)C(=O)NCCCCCCCCCCC(=O)O)NC(=O)[C@H](CO)NC(=O)[C@H](C(C)(C)O)NC(=O)[C@H](CC3CCCCC3)NC(=O)[C@H](CCN)NC(=O)[C@@H](CC(C)C)NC(=O)[C@H](CCCN)NC(=O)[C@H](Cc3ccc(OCC(=O)O)cc3)NC(=O)[C@H](Cc3ccc(-c4ccccc4)cc3)NC(=O)[C@H](Cc3ccc(OCC(=O)O)cc3)NC2=O)c1` [Compound 2220] ({CH2CO}-NY(Carboxymethyl)D[Phe(3-Me)]Y(Carboxymethyl)[Bip]Y(Carboxymethyl)[Orn][dL][Dab][Cha][Val(3-OH)]SC[Dab][Aun]-OH; thioether N-14), the IC50 was determined as 12.3 nM.

On to `Cc1cccc(C[C@@H]2NC(=O)[C@H](CC(=O)O)NC(=O)[C@H](Cc3ccc(OCC(=O)O)cc3)NC(=O)[C@H](CN)NC(=O)CSC[C@@H](C(=O)N[C@@H](CCN)C(=O)NCCCCCCCCCCCCC(=O)O)NC(=O)[C@H](CO)NC(=O)[C@H](C(C)(C)O)NC(=O)[C@H](CC3CCCCC3)NC(=O)[C@H](CCN)NC(=O)[C@@H](CC(C)C)NC(=O)[C@H](CCCN)NC(=O)[C@H](Cc3ccc(OCC(=O)O)cc3)NC(=O)[C@H](Cc3ccc(-c4ccccc4)cc3)NC(=O)[C@H](Cc3ccc(OCC(=O)O)cc3)NC2=O)c1` [Compound 2222] ({CH2CO}-[Dap]Y(Carboxymethyl)D[Phe(3-Me)]Y(Carboxymethyl)[Bip]Y(Carboxymethyl)[Orn][dL][Dab][Cha][Val(3-OH)]SC[Dab]-{NH(CH2)12COOH}; thioether N-14), for which the IC50 came out at 17.6 nM. In the case of `Cc1cccc(C[C@@H]2NC(=O)[C@H](CC(=O)O)NC(=O)[C@H](Cc3ccc(OCC(=O)O)cc3)NC(=O)[C@H](CN)NC(=O)CSC[C@@H](C(=O)N[C@@H](CCN)C(=O)NCCCCCCCCCCCCCCC(=O)O)NC(=O)[C@H](CO)NC(=O)[C@H](C(C)(C)O)NC(=O)[C@H](CC3CCCCC3)NC(=O)[C@H](CCN)NC(=O)[C@@H](CC(C)C)NC(=O)[C@H](CCCN)NC(=O)[C@H](Cc3ccc(OCC(=O)O)cc3)NC(=O)[C@H](Cc3ccc(-c4ccccc4)cc3)NC(=O)[C@H](Cc3ccc(OCC(=O)O)cc3)NC2=O)c1` [Compound 2223] ({CH2CO}-[Dap]Y(Carboxymethyl)D[Phe(3-Me)]Y(Carboxymethyl)[Bip]Y(Carboxymethyl)[Orn][dL][Dab][Cha][Val(3-OH)]SC[Dab]-{NH(CH2)14COOH}; thioether N-14) it was 280 nM.

As for `Cc1cccc(C[C@@H]2NC(=O)[C@H](CC(=O)O)NC(=O)[C@H](Cc3ccc(OCC(=O)O)cc3)NC(=O)[C@H](Cc3ccncc3)NC(=O)CSC[C@@H](C(=O)N[C@@H](CCN)C(=O)NCCCCCCCCCCCCC(=O)O)NC(=O)[C@H](CO)NC(=O)[C@H](C(C)(C)O)NC(=O)[C@H](CC3CCCCC3)NC(=O)[C@H](CCN)NC(=O)[C@@H](CC(C)C)NC(=O)[C@H](CCCN)NC(=O)[C@H](Cc3ccc(OCC(=O)O)cc3)NC(=O)[C@H](Cc3ccc(-c4ccccc4)cc3)NC(=O)[C@H](Cc3ccc(OCC(=O)O)cc3)NC2=O)c1` [Compound 2224] ({CH2CO}-[4Pal]Y(Carboxymethyl)D[Phe(3-Me)]Y(Carboxymethyl)[Bip]Y(Carboxymethyl)[Orn][dL][Dab][Cha][Val(3-OH)]SC[Dab]-{NH(CH2)12COOH}; thioether N-14), the IC50 is 26.2 nM. Consider `CCC[C@@H]1NC(=O)CSC[C@@H](C(=O)N[C@@H](CCN)C(=O)NCCCCCCCCCCCCC(=O)O)NC(=O)[C@H](CO)NC(=O)[C@H](C(C)(C)O)NC(=O)[C@H](CC2CCCCC2)NC(=O)[C@H](CCN)NC(=O)[C@@H](CC(C)C)NC(=O)[C@H](CCCN)NC(=O)[C@H](Cc2ccc(OCC(=O)O)cc2)NC(=O)[C@H](Cc2ccc(-c3ccccc3)cc2)NC(=O)[C@H](Cc2ccc(OCC(=O)O)cc2)NC(=O)[C@H](Cc2cccc(C)c2)NC(=O)[C@H](CC(=O)O)NC(=O)[C@H](Cc2ccc(OCC(=O)O)cc2)NC1=O` [Compound 2226] ({CH2CO}-[Nva]Y(Carboxymethyl)D[Phe(3-Me)]Y(Carboxymethyl)[Bip]Y(Carboxymethyl)[Orn][dL][Dab][Cha][Val(3-OH)]SC[Dab]-{NH(CH2)12COOH}; thioether N-14), for which the IC50 worked out at 27.8 nM.
